Tests used:
[1] = test system: skinned trabeculae; assay: Force-[Ca2+] relation in skinned trabeculae; assay type: cell-based, rat; conditions: skinned muscles; DTT (5 mM) for 10 min after NCA
Procedure: FIG. 2. […] (A) Steady-state force-[Ca^2+]i relationship in intact trabeculae before and after NCA (20 μmol/L). n=5. See text for details. (B) Force-[Ca^2+] relation in skinned trabeculae before and after NCA (n=6). […] The muscles were treated with DTT (5 mM) for 10 min after 1st force-[Ca^2+] was obtained in the presence of NCA alone, and a second force-[Ca^2+] relation was obtained in the presence of NCA+DTT. n=3. (D) For comparison, steady-state force-[Ca^2+]i relationship in intact trabeculae before and after AS (500 μmol/L). n=5.
To further test this hypothesis, steady-state force-[Ca^2+]i relations were obtained by tetanizing the muscles in the presence of ryanodine.

[2] = test system: rat cardiac muscle; assay: Force and [Ca2+]i measurements in cardiac trabeculae; assay type: cell-based; conditions: control compounds (NCA hydrolysis products, non-HNO-releasing analogue); data not shown
Procedure: Force and [Ca^2+]i Measurements in Cardiac Trabeculae.
Rat hearts were exposed via midsternotomy after the animals were anesthetized with intraperitoneal injection of pentobarbital (100 mg/kg), and were then rapidly excised and aorta cannulated. The hearts were perfused retrogradely (˜15 ml/min) with high K^+ Krebs-Henseleit (H-K) solution equilibrated with 95% O2 and 5% CO2. Trabeculae were quickly dissected from the right ventricles of the hearts and mounted between a force transducer and a motor arm. The muscles were superfused with K-H solution at a rate of ˜10 ml/min and stimulated at 0.5 Hz. Force was measured using a force transducer system (SI, Germany) and expressed in mN/mm^2. Sarcomere length was measured by laser diffraction. Fura-2 potassium salt was microinjected iontophoretically into one cell and allowed to spread throughout the whole muscle (via gap junctions). The epifluorescence of fura-2 was measured by exciting at 380 and 340 nm. The fluorescent light was collected at 510 nm by a photomultiplier tube (R1527, Hamamatsu). [Ca^2+]i was given by (after subtraction of the autofluorescence): [Ca^2+]i=K′d(R-Rmin)/(Rmax-R), where R is the observed ratio of fluorescence (340/380), K′d is the apparent dissociation constant, Rmax is the ratio of 340 nm/380 nm at saturating [Ca^2+], and Rmin is the ratio of 340 nm/380 nm at zero [Ca^2+]. The values of K′d, Rmax, and Rmin were determined by in vivo calibrations. Tetanization of the trabecula was achieved by addition of ryanodine (1.0 μmol/L) and by increasing the stimulus rate to 10 Hz briefly (˜3 sec) to obtain steady-state force-[Ca^2+] relations. Different levels of tetanized force will be obtained by increasing [Ca^2+] in the perfusate (up to 20-25 mmol/L). The data will be fitted with the Hill equation: F=Fmax[Ca^2+]in/(K1/2n+[Ca^2+]in), where Fmax is the maximal force. K1/2 is [Ca^2+]i at half Fmax, and n is the Hill coefficient.
1-nitrosocyclohexylacetate (NCA) is a new and mechanistically unique HNO donor that has been recently synthesized.

Structure (SMILES) | increases in myofilament Ca2+ sensitivity caused by HNO [1] | effects in cardiac muscles [2]
O[C@@H](CS)[C@@H](O)CS [DTT] | completely abolished | –
CC(C)(C)C(=O)OC1(N=O)CCCCC1 [1-nitrosocyclohexyl pivalate] | – | had no effects
O=C1CCCCC1 [cyclohexanone] | – | did not produce any appreciable effects

From patent US20120231482A1, “METHOD, KIT OR DIAGNOSTIC FOR THE DETECTION OF REAGENTS WHICH INDUCE ALTERED CONTRACTILITY” (THE JOHNS HOPKINS UNIVERSITY, priority 2009, published 2012)
